# The supplement of paper PMC10702517
# ± gives the standard deviation.
# Tests used:
# [1] = chemical recovery by SPE of plasma after PDMS sampling; higher = better extraction; settings: pooled human plasma, extraction method: HLB SPE of plasma after PES
# [2] = chemical recovery into PDMS from spiked human plasma; higher = better extraction; settings: pooled human plasma, extraction method: PES with PDMS
# [3] = chemical recovery from spiked human plasma; higher = better extraction; settings: pooled human plasma
# [4] = extraction method: SPE only (HLB 96-well)
# [5] = extraction method: SPE only (HLB 96-well), PES comparison experiment
# [6] = extraction method: solvent precipitation (ACN + hexane)
# [7] = extraction method: PES+SPE (3 d PDMS equilibration then HLB SPE)
# 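Wherever chemical recovery by SPE of plasma after PDMS sampling is given: over 400 spiked chemicals quantified by LC-HRMS or GC-HRMS via internal standard calibration, recovery relative to spike mix added to unspiked plasma extract to correct matrix effects.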
SMILES,chemical recovery by SPE of plasma ([1]; equilibration time (d): 1),chemical recovery by SPE of plasma ([1]; equilibration time (d): 3),chemical recovery by SPE of plasma ([1]; equilibration time (d): 6),chemical recovery into PDMS ([2]; equilibration time (d): 1),chemical recovery into PDMS ([2]; equilibration time (d): 3),chemical recovery into PDMS ([2]; equilibration time (d): 6),"chemical recovery [3, 4]","chemical recovery [3, 5]","chemical recovery [3, 6]","chemical recovery [3, 7]"
N#Cc1nn(-c2c(Cl)cc(C(F)(F)F)cc2Cl)c(N)c1C(F)(F)F [Fipronil desulfinyl],17.6 ± 2.5%,18 ± 1.9%,13.8 ± 0.85%,33.7 ± 0.57%,36.3 ± 2.9%,34.8 ± 0.66%,30.2 ± 6.1%,67.3 ± 7.3%,53.7 ± 4.2%,–
N#Cc1nn(-c2c(Cl)cc(C(F)(F)F)cc2Cl)c(N)c1SC(F)(F)F [Fipronil sulfide],21.2 ± 6.2%,19.9 ± 0.92%,15.3 ± 3%,22.6 ± 0.34%,25.1 ± 1.1%,24.4 ± 0.83%,30.6 ± 3.4%,64 ± 7%,49.8 ± 3.9%,–
N#Cc1nn(-c2c(Cl)cc(C(F)(F)F)cc2Cl)c(N)c1S(=O)(=O)C(F)(F)F [Fipronil sulfone],41.6 ± 14%,34.1 ± 7.7%,30.8 ± 9.5%,27.8 ± 0.78%,32.2 ± 2.1%,31 ± 0.79%,36.7 ± 3.6%,67.9 ± 8.3%,67.4 ± 7.9%,–
N#Cc1nn(-c2c(Cl)cc(C(F)(F)F)cc2Cl)c(N)c1[S+]([O-])C(F)(F)F (stereo not given) [Fipronil],19 ± 4.9%,21.5 ± 4.3%,15.4 ± 2.5%,25.5 ± 0.91%,30.2 ± 2.3%,29 ± 0.92%,31.6 ± 8.2%,64.5 ± 6.8%,40.3 ± 3.4%,–
OC(Cn1cncn1)(Cn1cncn1)c1ccc(F)cc1F [Fluconazole],42.2 ± 4.3%,42.2 ± 4.8%,36.6 ± 3.1%,2.22 ± 0.25%,4.26 ± 1.1%,4.9 ± 1%,–,47 ± 6.6%,77.1 ± 3.1%,43.8 ± 3.3%
CC(C)N(C(=O)COc1nnc(C(F)(F)F)s1)c1ccc(F)cc1 [Flufenacet],0.558 ± 0.061%,0.583 ± 0.14%,0.269 ± 0.043%,50 ± 1.1%,54.1 ± 4.8%,51.2 ± 6%,–,52.3 ± 7.7%,62.5 ± 3.1%,–
CC1CCc2cc(F)cc3c(=O)c(C(=O)O)cn1c23 (stereo not given) [Flumequine],43.1 ± 2.7%,43.8 ± 3.9%,40.3 ± 3.2%,0.511 ± 0.092%,2.26 ± 0.88%,2.3 ± 1.2%,44.8 ± 8%,49.8 ± 7.5%,72.1 ± 3.2%,44.1 ± 3.4%
CC1(C)O[C@@H]2C[C@H]3[C@@H]4C[C@H](F)C5=CC(=O)C=C[C@]5(C)[C@H]4[C@@H](O)C[C@]3(C)[C@]2(C(=O)CO)O1 [Flunisolide],39.7 ± 3.9%,37.1 ± 2.1%,27.6 ± 2.4%,5.95 ± 0.6%,10.2 ± 1.6%,11.7 ± 2%,–,46.9 ± 5.2%,–,–
c1ccc2c(c1)-c1cccc3cccc-2c13 [Fluoranthene],–,–,3.75 ± 6.5%,–,106 ± 24%,–,6.27 ± 1.4%,–,69 ± 3.7%,79.1 ± 25%
